Experimental data: article PMC8745299, “Generation of Lasso Peptide-Based ClpP Binders” (International Journal of Molecular Sciences, 2021)
Several values for one entry are separate records, joined by “and”; a condition that tells them apart may be missing. Equal entries are not always repeated. Where two headings read alike, the source gives them in different places. Values belong to the compound of their own block, whether it stands above or below them. Bridge positions count the residues as written; N and C are the ends. Square brackets hold non-standard residues; d marks the D form. Peptide text beside a SMILES is read from it. * marks the point of attachment. Phe(3,5-F2) = N[C@@H](Cc1cc(F)cc(F)c1)C(=O)O; Pro(4R-Me) = C[C@H]1CN[C@H](C(=O)O)C1; Propanoyl(3-cHex) = O=C(CCC1CCCCC1)*; NMeA = CN[C@@H](C)C(=O)O

Tests used:
BsClpP = biological target: T1, BsClpP (Bacillus subtilis, UniProt P80244); assay: BsClpP peptidase activity, preparation not specified; assay type: biochemical, B. subtilis
T1 construct: His-tag (C); made in house; host or cells: E. coli BL21 (DE3)
Protocol: (§1) Peptide degradation assays were performed in black flat-bottom 96-well plates with a total reaction volume of 100 μL and reaction temperatures of 32 °C and 37 °C for SaClpP and BsClpP, respectively. Stock solutions of ADEP2 and MccJ25 WT or variants were dissolved in DMSO and pre-diluted to 100× of the final concentration. Accordingly, 1 μL of the respective stock solution was placed at the bottom of the wells. […] 50 μL of a 2× enzyme solution (final assay concentration: 1 μM) in activity buffer was added to the plate and incubated for 15 min at 32 °C and 37 °C for SaClpP and BsClpP activity assays, respectively. The enzyme reaction was started by addition of 49 μL of a solution of the fluorogenic model peptide substrate Suc-Leu-Tyr-AMC in activity buffer at a final concentration of 200 μM. For SaClpP assays, the activity buffer was comprised of 100 mM NaCl and 100 mM HEPES at pH 7. BsClpP activity buffer (50 mM Tris-HCl, 25 mM MgCl2, 200 mM KCl, 2 mM DTT, pH 8) was used in BsClpP assays as well as in SaClpP experiments, where the buffer composition was supposed to lead to oligomeric breakdown of the SaClpP tetradecamer to allow testing the activity retaining effect of ClpP agonists. The fluorescence read-out was measured using a Tecan (Crailsheim, Germany) M200Pro plate reader (excitation/emission: 380/460 nm) every 30–60 s for 1 h. Enzyme velocity was determined by linear regression of the initial segment of the fluorescence-time plot in GraphPad Prism 5 (GraphPad Software, San Diego, CA, USA). All assays were performed in triplicate and repeated at least two times.

BsClpP tetradecamer = biological target: T2, BsClpP tetradecamer (Bacillus subtilis, UniProt P80244); assay: Peptidase activity of pre-purified tetradecameric BsClpP; assay type: biochemical, B. subtilis; conditions: read-out: EC50, BsClpP14 peptidase activity
T2 construct: His-tag (C); made in house; host or cells: E. coli BL21 (DE3)
Protocol: as §1, with “BsClpP activity buffer (50 mM Tris-HCl, 25 mM MgCl2, 200 mM KCl, 2 mM DTT, pH 8) was used in BsClpP assays as well as in SaClpP experiments, where the buffer composition was supposed to lead to oligomeric breakdown of the SaClpP tetradecamer to allow testing the activity retaining effect of ClpP agonists.” left out, “All assays were performed in triplicate and repeated at least two times.” left out

BsClpP (monomer) = biological target: T3, BsClpP (monomer) (Bacillus subtilis, UniProt P80244); assay: Peptidase activity of BsClpP, predominantly monomeric preparation; assay type: biochemical, B. subtilis
T3 construct: His-tag (C); made in house; host or cells: E. coli BL21 (DE3)
Protocol: as §1, with “BsClpP activity buffer (50 mM Tris-HCl, 25 mM MgCl2, 200 mM KCl, 2 mM DTT, pH 8) was used in BsClpP assays as well as in SaClpP experiments, where the buffer composition was supposed to lead to oligomeric breakdown of the SaClpP tetradecamer to allow testing the activity retaining effect of ClpP agonists.” left out, “All assays were performed in triplicate and repeated at least two times.” left out

SaClpP [1] = biological target: T4, SaClpP (Staphylococcus aureus, UniProt Q2G036); assay: Peptide (Suc-LY-AMC) degradation by SaClpP in destabilizing Tris buffer pH 8; assay type: biochemical, S. aureus; set-up: Strep-tag (C); made in house; host or cells: E. coli BL21 (DE3); conditions: Tris buffer pH 8; for EC50: 32 °C
T4 sequence (Q2G036 1-195): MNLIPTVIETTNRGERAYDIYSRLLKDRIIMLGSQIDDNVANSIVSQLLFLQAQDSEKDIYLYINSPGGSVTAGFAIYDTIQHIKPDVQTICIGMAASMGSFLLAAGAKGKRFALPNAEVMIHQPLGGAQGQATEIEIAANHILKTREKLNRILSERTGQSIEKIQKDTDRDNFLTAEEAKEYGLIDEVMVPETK
Source text: (§2) In order to assess the different MccJ25 variants, we first chose S. aureus ClpP (SaClpP) as a model peptidase and performed in vitro degradation assays with the fluorogenic model peptide substrate Suc-LY-AMC. […] To investigate whether the MccJ25 variants can exert a stabilizing effect on the oligomeric structure of tetradecameric SaClpP, we conducted peptide degradation assays under destabilizing conditions employing a Tris buffer at pH 8.
This experimental setup was then used to differentiate the MccJ25 variants regarding their effect on ClpP stability. […] The apparent affinity constant was deduced from enzyme activity assays and represents the effector molecule concentration at half maximal stimulation of enzyme activity (the lower the apparent affinity constant, the higher the affinity). To exclude that 12IGF serves as a SaClpP substrate, we incubated a mixture of SaClpP and 12IGF under assay conditions for up to 260 min.
as §1

SaClpP [2] = biological target: T4, SaClpP; assay: biochemical; set-up: Strep-tag (C); made in house; host or cells: E. coli BL21 (DE3)
Protocol: Casein degradation assays were performed analogous to peptide degradation assays. Fluorescein-labelled casein (FITC-casein) was employed at final concentrations of 20 μM in the respective activity buffers (see peptide degradation assay). 1 μL of a 100× stock solution of ADEP2 in DMSO was placed at the bottom of the wells followed by the addition of a 2× SaClpP or BsClpP enzyme solution (1 μM final concentration, unless noted otherwise). The mixture was incubated at 32 °C or 37 °C for 15 min and then the reaction was started by the addition of a 2× FITC-casein solution in the corresponding activity buffer. The fluorescence read-out was measured using a Tecan (Crailsheim, Germany) M200Pro plate reader employing an excitation wavelength of 485 nm and an emission wavelength of 535 nm. Enzyme velocity was acquired by linear regression of the initial segment of the fluorescence graph and plotted against ADEP2 concentration. All assays were performed in duplicate or triplicate.

SaClpP [3] = biological target: T4, SaClpP; assay: Peptide (Suc-LY-AMC) degradation by SaClpP in HEPES buffer pH 7; assay type: biochemical, S. aureus; set-up: Strep-tag (C); made in house; host or cells: E. coli BL21 (DE3); conditions: Figure 4A
Protocol: as §2
Peptide degradation assays were performed in black flat-bottom 96-well plates with a total reaction volume of 100 μL and reaction temperatures of 32 °C and 37 °C for SaClpP and BsClpP, respectively. Stock solutions of ADEP2 and MccJ25 WT or variants were dissolved in DMSO and pre-diluted to 100× of the final concentration. Accordingly, 1 μL of the respective stock solution was placed at the bottom of the wells. […] 50 μL of a 2× enzyme solution (final assay concentration: 1 μM) in activity buffer was added to the plate and incubated for 15 min at 32 °C and 37 °C for SaClpP and BsClpP activity assays, respectively. […] The fluorescence read-out was measured using a Tecan (Crailsheim, Germany) M200Pro plate reader (excitation/emission: 380/460 nm) every 30–60 s for 1 h. Enzyme velocity was determined by linear regression of the initial segment of the fluorescence-time plot in GraphPad Prism 5 (GraphPad Software, San Diego, CA, USA). […]

SaClpP [4] = biological target: T4, SaClpP; set-up: Strep-tag (C); made in house; host or cells: E. coli BL21 (DE3); conditions: ADEP2 vs natural product ADEP1; ref not given; cited from earlier work
Source text: Figure 3 Grafting of the hydrophobic tripeptide binding motifs onto the MccJ25 lasso peptide scaffold. (A) Schematic of the ClpP tetradecamer and the complete Clp protease complex, i.e., ClpP in concert with ClpX. The interaction between ClpP and the ClpX ATPase occurs between protruding flexible loops of ClpX, carrying the conserved tripeptide motif (L/I/V)-G-(F/L), and the H-pockets of ClpP. The H-pockets are located between two adjacent monomers of ClpP. In the ClpXP complexes of S. aureus and B. subtilis, which we used for our biochemical assays, the respective motif is IGF. (B) The IGF tr ...

SaClpP [5] = biological target: T4, SaClpP; assay: Analytical gel filtration, SaClpP oligomeric state; set-up: Strep-tag (C); made in house; host or cells: E. coli BL21 (DE3); conditions: Superdex 200, Tris buffer pH 8, representative experiment from three repetitions
[6] = biological target: B. subtilis ClpP (Bacillus subtilis) (UniProt P80244); assay: SEC; BsClpP purified under specific buffer conditions that favor tetradecamer assembly; tetradecameric fraction collected from a gel filtration column (buffers in ref. 43)

T1 sequence (P80244 whole entry): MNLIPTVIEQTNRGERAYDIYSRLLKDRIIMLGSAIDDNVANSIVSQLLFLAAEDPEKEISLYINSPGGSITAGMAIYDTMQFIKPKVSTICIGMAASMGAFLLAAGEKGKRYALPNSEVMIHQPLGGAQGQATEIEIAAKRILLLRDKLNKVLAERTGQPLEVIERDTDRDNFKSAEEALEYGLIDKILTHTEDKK
T3 sequence (P80244 whole entry): as above
T2 sequence (P80244 whole entry): as above

Compound: CC[C@H](C)[C@H](NC(=O)[C@@H](NC(=O)[C@H](Cc1ccccc1)NC(=O)[C@H](Cc1ccc(O)cc1)NC(=O)[C@@H]1CCC(=O)NCC(=O)NCC(=O)N[C@@H](C)C(=O)NCC(=O)N[C@@H](Cc2c[nH]cn2)C(=O)N[C@@H](C(C)C)C(=O)N2CCC[C@H]2C(=O)N1)C(C)C)C(=O)NCC(=O)N[C@@H](Cc1ccccc1)C(=O)N[C@H](C(=O)N1CCC[C@H]1C(=O)N[C@H](C(=O)N[C@@H](CO)C(=O)N[C@@H](Cc1ccccc1)C(=O)N[C@@H](Cc1ccc(O)cc1)C(=O)NCC(=O)O)[C@@H](C)CC)[C@@H](C)O [12IGF] (GGAGHVPEYFVIGFTPISFYG-OH; lactam N-8)
EC50 relative to ADEP (BsClpP; 12IGF EC50 in SaClpP and BsClpP peptidase assays vs EC50 values measured for ADEP): exceeded the EC50 values measured for ADEP by one to two orders of magnitude
EC50 (BsClpP; Figure 5C,D, with or without ADEP2 not specified, 37 °C): 60 µM
EC50 (BsClpP tetradecamer): 60.3 ± 12.1 µM
EC50 (BsClpP (monomer); 5 μM ADEP2, Tris pH 8, 37 °C, ± S.D., two separate experiments, read-out: EC50, BsClpP1 peptidase activity (+ADEP2)): 60.2 ± 3.78 µM
EC50 (BsClpP (monomer); with ADEP2 (Figure 5C), Tris pH 8, 37 °C, read-out: apparent affinity constant, BsClpP activation in the presence of ADEP2): 60 µM
EC50 (SaClpP [1]; 1 μM SaClpP, 200 μM Suc-Leu-Tyr-AMC, 15 min pre-incubation, fluorescence 380/460 nm, ± S.D., three independent experiments, read-out: EC50, stabilizing effect on SaClpP peptidase activity): 26 ± 3.32 µM
EC50 (SaClpP [1]; effector concentration at half maximal stimulation of enzyme activity, Suc-Leu-Tyr-AMC, read-out: apparent affinity constant, stabilizing effect on SaClpP peptidase activity): ~26 µM and 26 µM

Compound: C[C@@H]1C[C@H]2C(=O)OC[C@H](NC(=O)[C@H](Cc3cc(F)cc(F)c3)NC(=O)CCC3CCCCC3)C(=O)N3CCC[C@H]3C(=O)N(C)[C@@H](C)C(=O)N[C@@H](C)C(=O)N2C1 [ADEP2] ({Propanoyl(3-cHex)}-[Phe(3,5-F2)]SP[NMeA]A[Pro(4R-Me)]; ester 2-C)
EC50 (SaClpP [2]): 304 ± 179 nM
SaClpP peptidase activity enhancement (SaClpP [3]): enhanced weakly
affinity for SaClpP (SaClpP [4]): increased affinity for SaClpP
SaClpP tetradecamer integrity (SaClpP [5]): Inactivation by oligomeric breakdown in Tris buffer at pH 8 can be circumvented by the addition of ADEP2
SaClpP peptidase activity retained in the presence of ADEP2 (SaClpP [1]; Figure 4A): a substantial extent of the original activity (observed in the favorable HEPES buffer at pH 7) was retained in the presence of ADEP2

stoichiometry N [6]: 14
Compound: B. subtilis ClpP (from UniProt P80244 1-197) (enzyme)
